pIC50: −log10 of the molar value. Active and inactive are the calls of the source. The calls are words filed in the database; no cut-off is given here.
Key:
[1] = molecular target: RmtA (Emericella nidulans) (UniProt Q5VLE3); assay: Inhibition of Aspergillus nidulans RmtA at 40 uM by TRF assay; set-up: scale not given: the % may be the effect or the level left
[2] = molecular target: Protein arginine N-methyltransferase 1 (Homo sapiens) (UniProt Q99873); assay: Inhibition of human PRMT1 at 40 uM by TRF assay; set-up: scale not given: the % may be the effect or the level left
Chain of Protein arginine N-methyltransferase 1 (Homo sapiens) (Q99873 whole entry, looked up): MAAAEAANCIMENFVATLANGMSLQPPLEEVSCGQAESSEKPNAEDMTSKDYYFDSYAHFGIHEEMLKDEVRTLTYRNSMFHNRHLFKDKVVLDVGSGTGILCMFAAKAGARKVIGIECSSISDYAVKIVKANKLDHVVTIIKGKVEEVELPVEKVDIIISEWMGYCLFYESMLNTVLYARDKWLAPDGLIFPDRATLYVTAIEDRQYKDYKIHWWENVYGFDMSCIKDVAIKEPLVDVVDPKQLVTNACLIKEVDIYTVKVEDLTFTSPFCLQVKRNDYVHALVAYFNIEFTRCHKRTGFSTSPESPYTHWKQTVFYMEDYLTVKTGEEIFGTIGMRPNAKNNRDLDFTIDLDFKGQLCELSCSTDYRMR

RmtA = RmtA (Emericella nidulans, UniProt Q5VLE3); assay: Inhibition of Aspergillus nidulans RmtA by TRF assay
Chain of RmtA (Q5VLE3 whole entry): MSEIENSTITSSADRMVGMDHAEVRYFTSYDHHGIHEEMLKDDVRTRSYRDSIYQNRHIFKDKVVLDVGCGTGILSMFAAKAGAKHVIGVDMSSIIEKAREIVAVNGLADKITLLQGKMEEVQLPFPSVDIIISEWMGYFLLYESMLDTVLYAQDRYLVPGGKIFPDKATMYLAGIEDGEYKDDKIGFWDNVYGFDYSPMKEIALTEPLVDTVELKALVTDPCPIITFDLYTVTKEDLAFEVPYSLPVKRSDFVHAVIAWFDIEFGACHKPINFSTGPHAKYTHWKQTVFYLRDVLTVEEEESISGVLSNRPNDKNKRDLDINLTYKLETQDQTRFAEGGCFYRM

[3] = molecular target: T1, Histone-lysine N-methyltransferase SETD7 (Homo sapiens) (UniProt Q8WTS6); assay: Inhibition of lysine methyltransferase SET7/9 at 50 uM
T1 sequence (whole entry): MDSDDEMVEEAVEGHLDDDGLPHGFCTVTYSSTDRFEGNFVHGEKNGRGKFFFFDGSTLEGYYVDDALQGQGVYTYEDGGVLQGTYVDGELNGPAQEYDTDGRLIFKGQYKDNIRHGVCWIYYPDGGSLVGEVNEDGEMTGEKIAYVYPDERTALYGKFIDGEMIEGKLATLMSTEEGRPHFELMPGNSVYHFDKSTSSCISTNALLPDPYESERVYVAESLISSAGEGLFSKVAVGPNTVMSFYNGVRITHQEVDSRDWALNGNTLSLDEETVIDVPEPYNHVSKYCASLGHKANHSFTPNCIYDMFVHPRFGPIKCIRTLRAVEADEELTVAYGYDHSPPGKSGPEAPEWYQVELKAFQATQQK

Chain of RmtA (Emericella nidulans) (Q5VLE3 as listed by the source): as the sequence (Q5VLE3 whole entry) above

| SMILES | Activity [1] [%] | Activity [2] [%] | pIC50 (RmtA) | Activity [3] |
| --- | --- | --- | --- | --- |
| CC(SC1c2ccccc2Oc2ccccc21)C(=O)NCCOCCOCCNC(=O)C(C)SC1c2ccccc2Oc2ccccc21 (stereo not given) | < 20 | < 20 |  |  |
| CC(SC1c2ccccc2Sc2ccccc21)C(=O)N1CCCC1 (stereo not given) | < 20 | < 20 |  |  |
| CC(S)C(=O)NCCCN (stereo not given) |  | < 20 | 4.33 |  |
| O=C(CSC1c2ccccc2Oc2ccccc21)N1CCCCC1 | < 20 | < 20 |  |  |
| CC(SC1c2ccccc2Oc2ccccc21)C(=O)NCCNC(=O)C(C)SC1c2ccccc2Oc2ccccc21 (stereo not given) |  |  | 4.34 | inactive |

From ChEMBL document CHEMBL1145428, “A novel arginine methyltransferase inhibitor with cellular activity” (Bioorg Med Chem Lett, 2007)
